What was measured:
[1] = molecular target: T1, Neutral cholesterol ester hydrolase 1 (Mus musculus, UniProt Q8BLF1); experiment: Inhibition of FP-rhodamine probe binding to KIAA1363 in mouse brain membrane proteome preincubated for 1 hr followed by FP-rhodamine addition and measured after 30 mins by SDS-PAGE based fluorescence assay; format: cell membranes
T1 sequence (Q8BLF1 whole entry): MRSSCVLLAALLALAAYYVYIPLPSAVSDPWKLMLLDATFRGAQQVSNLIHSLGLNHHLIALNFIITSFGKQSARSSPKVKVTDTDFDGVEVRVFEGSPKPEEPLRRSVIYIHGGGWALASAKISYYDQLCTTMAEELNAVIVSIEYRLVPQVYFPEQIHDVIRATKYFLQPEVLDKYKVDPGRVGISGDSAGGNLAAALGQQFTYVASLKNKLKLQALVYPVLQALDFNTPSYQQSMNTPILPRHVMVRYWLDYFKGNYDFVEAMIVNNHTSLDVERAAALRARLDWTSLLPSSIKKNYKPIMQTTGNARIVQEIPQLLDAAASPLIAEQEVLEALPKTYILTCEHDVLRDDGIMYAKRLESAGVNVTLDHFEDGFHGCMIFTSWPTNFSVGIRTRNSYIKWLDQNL

[2] = molecular target: T2, Monoacylglycerol lipase ABHD6 (Mus musculus, UniProt Q8R2Y0); experiment: Inhibition of FP-rhodamine probe binding to ABHD6 in mouse brain membrane proteome preincubated for 1 hr followed by FP-rhodamine addition and measured after 30 mins by SDS-PAGE based fluorescence assay; format: cell membranes
T2 sequence (Q8R2Y0 whole entry): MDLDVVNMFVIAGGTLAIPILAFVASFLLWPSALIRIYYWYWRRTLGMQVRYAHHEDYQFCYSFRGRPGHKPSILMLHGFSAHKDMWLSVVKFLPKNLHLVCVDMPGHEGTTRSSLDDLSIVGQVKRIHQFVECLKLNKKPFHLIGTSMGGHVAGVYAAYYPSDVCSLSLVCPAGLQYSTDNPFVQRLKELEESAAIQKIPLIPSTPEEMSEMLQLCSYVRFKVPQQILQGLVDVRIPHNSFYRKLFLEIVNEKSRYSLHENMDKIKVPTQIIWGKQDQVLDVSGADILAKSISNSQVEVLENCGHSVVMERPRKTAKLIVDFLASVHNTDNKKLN

Monoglyceride lipase = molecular target: T3, Monoglyceride lipase (Mus musculus, UniProt O35678); experiment: Inhibition of FP-rhodamine probe binding to MGLL in mouse brain membrane proteome preincubated for 1 hr followed by FP-rhodamine addition and measured after 30 mins by SDS-PAGE based fluorescence assay; format: cell membranes
T3 sequence (O35678 whole entry): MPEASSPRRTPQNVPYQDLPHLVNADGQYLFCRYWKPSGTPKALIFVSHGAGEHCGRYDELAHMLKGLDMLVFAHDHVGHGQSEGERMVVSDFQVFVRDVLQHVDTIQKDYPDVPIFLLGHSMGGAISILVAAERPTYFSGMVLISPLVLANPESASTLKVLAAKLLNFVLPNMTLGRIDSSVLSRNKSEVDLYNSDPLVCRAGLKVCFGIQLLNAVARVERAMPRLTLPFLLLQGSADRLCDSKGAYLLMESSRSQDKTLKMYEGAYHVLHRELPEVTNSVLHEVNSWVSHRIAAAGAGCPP

[3] = molecular target: T4, Fatty-acid amide hydrolase 1 (Mus musculus, UniProt O08914); experiment: Inhibition of FP-rhodamine probe binding to FAAH in mouse brain membrane proteome preincubated for 1 hr followed by FP-rhodamine addition and measured after 30 mins by SDS-PAGE based fluorescence assay; format: cell membranes
T4 sequence (O08914 whole entry): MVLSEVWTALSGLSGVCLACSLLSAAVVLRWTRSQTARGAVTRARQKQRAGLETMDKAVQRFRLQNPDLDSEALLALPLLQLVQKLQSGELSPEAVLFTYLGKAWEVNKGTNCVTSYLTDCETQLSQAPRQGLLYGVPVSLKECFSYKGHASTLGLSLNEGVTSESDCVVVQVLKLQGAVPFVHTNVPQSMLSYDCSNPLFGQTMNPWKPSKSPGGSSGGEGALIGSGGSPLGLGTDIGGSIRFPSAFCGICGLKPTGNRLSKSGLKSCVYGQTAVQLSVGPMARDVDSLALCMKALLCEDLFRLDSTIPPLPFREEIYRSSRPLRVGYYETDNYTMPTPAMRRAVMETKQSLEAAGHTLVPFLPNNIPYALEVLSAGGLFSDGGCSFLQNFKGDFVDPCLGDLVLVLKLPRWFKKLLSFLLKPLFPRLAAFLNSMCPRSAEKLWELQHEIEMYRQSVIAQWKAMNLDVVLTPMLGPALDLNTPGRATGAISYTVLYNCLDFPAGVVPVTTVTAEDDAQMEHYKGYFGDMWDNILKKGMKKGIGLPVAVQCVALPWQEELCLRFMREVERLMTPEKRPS

[4] = Inhibition of recombinant rat FAAH deltaTM mutant expressed in Escherichia coli using 14C-labeled oleamide as substrate preincubated for 3 hrs followed by substrate addition and measured by TLC based Dixon-plot analysis; conditions: read-out: Ki(app)

CN(CCN(C)C(c1ccc(OCc2ccccc2)cc1)c1ccc(OCc2ccccc2)cc1)C(=O)n1cccn1
IC50 [1]: > 1000 µM
IC50 [2]: > 1000 µM
IC50 (Monoglyceride lipase): > 1000 µM
IC50 [3]: > 1000 µM

O=C(N1CCCN(Cc2ccc(OCc3ccccc3)cc2)CC1)n1cccn1
IC50 [1]: > 100 µM
IC50 [2]: 0.96 µM
IC50 (Monoglyceride lipase): 10 µM
Ki [4]: 0.034 µM
IC50 [3]: 0.45 µM

O=C(NCc1ccc(OC(c2ccccc2)c2ccccc2)cc1)n1cccn1
IC50 [1]: > 100 µM
IC50 (Monoglyceride lipase): > 100 µM
Ki [4]: 140 µM
IC50 [3]: > 100 µM

Cc1cnn(C(=O)N(C)CCN(C)Cc2ccc(OCc3ccccc3)cc2)c1
IC50 [1]: > 100 µM
IC50 [2]: 1.2 µM
IC50 (Monoglyceride lipase): 1.2 µM
Ki [4]: 0.07 µM
IC50 [3]: 8.7 µM

Cc1cnn(C(=O)NCc2ccc(OCc3ccccc3)cc2)c1
IC50 [1]: > 100 µM
IC50 (Monoglyceride lipase): 1 µM
Ki [4]: 0.3 µM
IC50 [3]: 1.2 µM

O=C(N1CCN(C(c2ccc(OCc3ccccc3)cc2)c2ccc(OCc3ccccc3)cc2)CC1)n1cccn1
IC50 [1]: > 100 µM
IC50 [2]: > 100 µM
IC50 (Monoglyceride lipase): 3.9 µM
Ki [4]: 73 µM
IC50 [3]: > 100 µM

CN(CCN(C)C(=O)n1cc(C#N)cn1)Cc1cccc(OCc2ccccc2)c1
IC50 [1]: > 100 µM
IC50 [2]: 1.1 µM
IC50 (Monoglyceride lipase): 0.59 µM
Ki [4]: 0.0013 µM
IC50 [3]: 0.19 µM

Cc1cnn(C(=O)N(C)CCN(C)Cc2cccc(OCc3ccccc3)c2)c1
IC50 [1]: > 100 µM
IC50 [2]: 8.3 µM
IC50 (Monoglyceride lipase): 4.1 µM
Ki [4]: 0.035 µM
IC50 [3]: 9 µM

O=C(N1CCN(C(c2ccc3ccccc3c2)c2ccc3ccccc3c2)CC1)n1cccn1
IC50 [1]: > 100 µM
IC50 [2]: > 100 µM
IC50 (Monoglyceride lipase): 1.8 µM
IC50 [3]: > 100 µM

CN(CCN(C)C(=O)n1cccn1)Cc1cccc(OCc2ccccc2)c1
IC50 [1]: > 100 µM
IC50 [2]: 5.5 µM
IC50 (Monoglyceride lipase): 4.6 µM
Ki [4]: 0.0066 µM
IC50 [3]: 3 µM

Cc1cnn(C(=O)N2CCCCC2)c1
IC50 [1]: > 100 µM
IC50 [2]: 1.1 µM
IC50 (Monoglyceride lipase): 9.2 µM
Ki [4]: > 1 µM
IC50 [3]: 2.2 µM

N#Cc1cnn(C(=O)NCc2ccc(OCc3ccccc3)cc2)c1
IC50 [1]: > 100 µM
IC50 (Monoglyceride lipase): 0.1 µM
Ki [4]: 0.017 µM
IC50 [3]: 0.06 µM

N#Cc1cnn(C(=O)NCc2ccc(OC(c3ccccc3)c3ccccc3)cc2)c1
IC50 [1]: > 100 µM
IC50 (Monoglyceride lipase): > 100 µM
Ki [4]: 80 µM
IC50 [3]: > 100 µM

Cc1cnn(C(=O)N2CCN(C(c3ccc(OCc4ccccc4)cc3)c3ccc(OCc4ccccc4)cc3)CC2)c1
IC50 [1]: > 100 µM
IC50 [2]: > 100 µM
IC50 (Monoglyceride lipase): 2.1 µM
Ki [4]: 110 µM
IC50 [3]: > 100 µM

Cc1cnn(C(=O)N2CCCN(Cc3ccc(OCc4ccccc4)cc3)CC2)c1
IC50 [1]: > 100 µM
IC50 [2]: 9.5 µM
IC50 (Monoglyceride lipase): 9.5 µM
Ki [4]: 0.23 µM
IC50 [3]: 0.56 µM

O=C(NCc1ccc(OCc2ccccc2)cc1)n1cccn1
IC50 [1]: > 100 µM
IC50 (Monoglyceride lipase): 0.9 µM
Ki [4]: 0.1 µM
IC50 [3]: 0.8 µM

N#Cc1cnn(C(=O)N2CCCN(Cc3ccc(OCc4ccccc4)cc3)CC2)c1
IC50 [1]: > 100 µM
IC50 [2]: 0.085 µM
IC50 (Monoglyceride lipase): 10 µM
Ki [4]: 0.0015 µM
IC50 [3]: < 0.01 µM

O=C(N1CCCCC1)n1cccn1
IC50 [1]: > 100 µM
IC50 [2]: 5 µM
IC50 (Monoglyceride lipase): 6.6 µM
Ki [4]: 0.75 µM
IC50 [3]: 1 µM

Cc1cnn(C(=O)N(C)CCN(C)C(c2ccc(OCc3ccccc3)cc2)c2ccc(OCc3ccccc3)cc2)c1
IC50 [1]: > 1000 µM
IC50 [2]: > 1000 µM
IC50 (Monoglyceride lipase): > 1000 µM
Ki [4]: 140 µM
IC50 [3]: > 1000 µM

Cc1cnn(C(=O)N2CCN(C(c3ccc4ccccc4c3)c3ccc4ccccc4c3)CC2)c1
IC50 [1]: > 100 µM
IC50 [2]: > 100 µM
IC50 (Monoglyceride lipase): 0.26 µM
IC50 [3]: > 100 µM

CN(CCN(C)C(c1ccc(OCc2ccccc2)cc1)c1ccc(OCc2ccccc2)cc1)C(=O)n1cc(C#N)cn1
IC50 [1]: > 1000 µM
IC50 [2]: > 1000 µM
IC50 (Monoglyceride lipase): 32 µM
IC50 [3]: > 1000 µM

Cc1cnn(C(=O)NCc2ccc(OC(c3ccccc3)c3ccccc3)cc2)c1
IC50 [1]: > 100 µM
IC50 (Monoglyceride lipase): > 100 µM
Ki [4]: 220 µM
IC50 [3]: > 100 µM
